Experiment: Removal of Cu[II] ions from hydraulic fluid with thiol compounds of structure (2), ICP measurement
Conditions: Skydrol LD-4 with about 10 ppm copper (II) acetylacetate; for [Cu] T = 24 hr.: after 24 hr. contact with equimolar amount of thiol compound; for [Cu] T = 0 hr.: before addition of the thiol compound
Experimental: Copper (II) acetylacetate is added to a sample of hydraulic fluid (e.g., Skydrol® LD-4 (Eastman Chemical Co. (Kingsport, Tenn. [US])), though any phosphate ester hydraulic fluid is suitable) to provide a final concentration of about 10 ppm copper (II) acetylacetate in the fluid. The amount of copper (II) is measured in the solution using an Inductively Coupled Plasma Spectrometer (ICP). An equimolar amount of a thiol compound of structure (2) is added to a portion of the copper (II) acetate-hydraulic fluid solution and the solution-mixture is mixed using a vortex mixer for 1.5 minutes. The solution-mixture is allowed to stand for 24 hours and the copper (II) content present in the solution is measured using an Inductively Coupled Plasma Spectrometer (ICP). The amount of copper sequestered or complexed by the thiol compound is determined from the difference in the copper (II) concentrations before and after addition of the thiol compound.
Table 5 presents results of Copper (II) content in aliquots of hydraulic fluid (Skydrol® LD-4) containing copper (II) acetylacetate to a final concentration of about 10 ppm copper (II) acetylacetate and contacted with an equimolar amount of the indicated thiol compounds for 24 hours.

SMILES	[Cu] T = 24 hr.	[Cu] T = 0 hr.
Sc1nnc(S)s1 [I, 1,3,4-Thiadiazole-2,5-dithiol]	7.9 ppm	10.8 ppm
Sc1nnc(SSc2nnc(S)s2)s1 [II, 5,5′-Dithiobis(1,3,4-Thiadiazole-2(3H)-thione)]	6.4 ppm	11.1 ppm

From patent publication US10538230B2, “Thiol based resin system for removal of copper ions from hydraulic fluid” (THE BOEING COMPANY, priority 2015, dated 2020)
